From ChEMBL document CHEMBL5113487, “Novel anilinopyrimidine derivatives as potential EGFRT790M/C797S Inhibitors: Design, Synthesis, biological activity study” (Bioorg Med Chem, 2022)
One block for each compound: values may come before it. Activity calls are given as the source filed them. The rule behind the calls is not given here.

What was measured:
[1] = Drug distribution in brain of nude mouse implanted with mouse BaF3 cells harboring EGFR del18/T790M/C797S triple mutant at 20 mg/kg, po administered as single dose and measured upto 24 hrs; type: ADME, organism-based; details: in vivo
[2] = Toxicity in Sprague-Dawley rat assessed as animal death at 3 to 15 mg/kg, po administered once a day for 4 weeks and measured 4 weeks post recovery period; type: organism-based; details: in vivo, 1344 h, dose 3-15 mg/kg, time 8 weeks
[3] = AUC(0 to t) in mouse at 5 mg/kg measured upto 24 hrs by LC-MS/MS analysis; type: ADME, organism-based; design: time < 24 hrs, dose 5 mg/kg; details: in vivo
[4] = Antitumor activity against patient-derived human […] cells xenografted in mouse assessed as tumor growth inhibition at 20 mg/kg, po administered once a day for 28 days relative to control; type: functional; details: LD1-0025-200717, 672 h, time 28 day, read-out: TGI
[5] = molecular target: Phosphatidylinositol 4,5-bisphosphate 3-kinase catalytic subunit alpha isoform (Homo sapiens, UniProt P42336); assay: Inhibition of PI3Kalpha (unknown origin)
[6] = MRT in mouse at 5 mg/kg measured upto 24 hrs by LC-MS/MS analysis; type: ADME, organism-based; details: in vivo
[7] = test system: PC-9; assay: Antitumor activity against human PC-9 cells harboring EGFR del18/T790M/C797S triple mutant xenografted in NOD/SCID mouse assessed as tumor growth inhibition at 40 mg/kg, po administered once a day for 21 days relative to control; type: functional; details: PC-9, 504 h, time 21 day, read-out: TGI
[8] = test system: BaF3; assay: Antitumor activity against mouse BaF3 cells harboring EGFR del18/T790M/C797S triple mutant implanted in Balb/c nude mouse assessed as tumor growth inhibition at 40 mg/kg, po administered once a day for 14 days relative to control; type: functional; details: BaF3, 336 h, time 14 day, read-out: TGI
[9] = molecular target: Epidermal growth factor receptor (Homo sapiens, UniProt P00533); assay: In vivo inhibition of EGFR phosphorylation in nude mouse implanted with mouse BaF3 cells harboring EGFR del18/T790M/C797S triple mutant at 20 mg/kg, po administered as single dose and measured upto 24 hrs by Western blot analysis
[10] = Acute toxicity in Sprague-Dawley rat assessed as biological changes in clinical pathology at 15 to 60 mg/kg, IG administered as single dose and measured after 14 days; type: organism-based; details: in vivo, po, 336 h, dose 15-60 mg/kg, time 14 day
[11] = Antitumor activity against patient-derived human […] cells xenografted in mouse assessed as tumor weight at 40 mg/kg, po administered once a day for 28 days relative to control; type: functional, LD1-0025-200717; details: time 28 day
[12] = Drug distribution in plasma of nude mouse implanted with mouse BaF3 cells harboring EGFR del18/T790M/C797S triple mutant at 15 to 45 mg/kg, po administered as single dose and measured after 4 hrs; type: ADME, organism-based; details: in vivo, dose 15-45 mg/kg
[13] = Drug distribution in tumor of nude mouse implanted with mouse BaF3 cells harboring EGFR del18/T790M/C797S triple mutant at 20 mg/kg, po administered as single dose and measured upto 24 hrs; type: ADME, organism-based, Neoplasm; details: in vivo
[14] = test system: BaF3; assay: Antiproliferative activity against mouse BaF3 cells harboring del18/T790M/C797S triple mutant assessed as cell growth inhibition incubated for 72 hrs by cell titre glo luminescence assay; type: functional, cell-based; details: BaF3, 72 h
[15] = test system: BaF3; assay: Antitumor activity against mouse BaF3 cells harboring EGFR del18/T790M/C797S triple mutant implanted in Balb/c nude mouse assessed as tumor weight at 30 mg/kg, po administered once a day for 14 days; type: functional; details: time 14 day
[16] = Antitumor activity against patient-derived human […] cells xenografted in mouse assessed as tumor growth inhibition at 40 mg/kg, po administered once a day for 28 days relative to control; type: functional; details: LD1-0025-200717, 672 h, time 28 day, read-out: TGI
[17] = test system: BaF3; assay: Antitumor activity against mouse BaF3 cells harboring EGFR del18/T790M/C797S triple mutant implanted in Balb/c nude mouse assessed as tumor growth inhibition at 15 mg/kg, po administered once a day for 14 days relative to control; type: functional; details: BaF3, 336 h, time 14 day, read-out: TGI
[18] = test system: PC-9; assay: Antitumor activity against human PC-9 cells harboring EGFR del18/T790M/C797S triple mutant xenografted in NOD/SCID mouse assessed as tumor growth inhibition at 15 mg/kg, po administered once a day for 21 days relative to control; type: functional; details: PC-9, 504 h, time 21 day, read-out: TGI
[19] = Toxicity in orally dosed Sprague-Dawley rat assessed as maximum tolerated dose administered once a day for 4 weeks and measured 4 weeks post recovery period; type: organism-based; details: in vivo, route po, time 8 weeks
[20] = molecular target: Serine/threonine-protein kinase B-raf (Homo sapiens, UniProt P15056); assay: Inhibition of BRAF (unknown origin)
[21] = test system: BaF3; assay: Antitumor activity against mouse BaF3 cells harboring EGFR del18/T790M/C797S triple mutant implanted in Balb/c nude mouse assessed as tumor weight at 40 mg/kg, po administered once a day for 14 days; type: functional; details: time 14 day
[22] = molecular target: Epidermal growth factor receptor (Homo sapiens, UniProt P00533, C797S/L858R/T790M); assay: Inhibition of EGFR L858R/T790M/C797S triple mutant (unknown origin) using TK as substrate incubated for 120 mins in the presence of ATP by HTRF assay
[23] = molecular target: CDK9/cyclin T1 (Homo sapiens, UniProt P50750); assay: Inhibition of CDK9/Cyclin T1 (unknown origin); type: protein-complex assay
[24] = Toxicity in Sprague-Dawley rat assessed as effect on body weight at 3 to 7.5 mg/kg, po administered once a day for 4 weeks and measured 4 weeks post recovery period; type: organism-based; details: in vivo, 1344 h, dose 3-7.5 mg/kg, time 8 weeks
[25] = molecular target: Mitogen-activated protein kinase 14 (Homo sapiens, UniProt Q16539); assay: Inhibition of P38alpha (unknown origin)
[26] = Drug distribution in tumor of nude mouse implanted with mouse BaF3 cells harboring EGFR del18/T790M/C797S triple mutant at 15 to 45 mg/kg, po administered as single dose and measured after 4 hrs; type: ADME, organism-based, Neoplasm; details: in vivo, dose 15-45 mg/kg
[27] = Half-life in mouse at 5 mg/kg measured upto 24 hrs by LC-MS/MS analysis; type: ADME, organism-based; details: in vivo
[28] = test system: PC-9; assay: Antitumor activity against human PC-9 cells harboring EGFR del18/T790M/C797S triple mutant xenografted in NOD/SCID mouse assessed as tumor growth inhibition at 30 mg/kg, po administered once a day for 21 days relative to control; type: functional; details: PC-9, 504 h, time 21 day, read-out: TGI
[29] = Toxicity in Sprague-Dawley rat assessed as body weight gain during recovery period at 15 mg/kg, po administered once a day for 4 weeks and measured 4 weeks post recovery period; type: organism-based; details: in vivo, 1344 h, time 8 weeks
[30] = molecular target: Epidermal growth factor receptor (Homo sapiens, UniProt P00533, C797S/EX18DEL/T790M); assay: Inhibition of EGFR del18/T790M/C797S triple mutant (unknown origin) using TK as substrate incubated for 120 mins in the presence of ATP by HTRF assay
[31] = test system: BaF3; assay: Antitumor activity against mouse BaF3 cells harboring EGFR del18/T790M/C797S triple mutant implanted in Balb/c nude mouse assessed as tumor growth inhibition at 30 mg/kg, po administered once a day for 14 days relative to control; type: functional; details: BaF3, 336 h, time 14 day, read-out: TGI
[32] = Antitumor activity against patient-derived human […] cells xenografted in mouse assessed as tumor weight at 20 mg/kg, po administered once a day for 28 days relative to control; type: functional, LD1-0025-200717; details: time 28 day
[33] = test system: BaF3; assay: Antitumor activity against mouse BaF3 cells harboring EGFR del18/T790M/C797S triple mutant implanted in Balb/c nude mouse assessed as tumor weight at 15 mg/kg, po administered once a day for 14 days; type: functional; details: time 14 day
[34] = test system: BaF3; assay: In vivo inhibition of ERK phosphorylation in nude mouse implanted with mouse BaF3 cells harboring EGFR del18/T790M/C797S triple mutant at 20 mg/kg, po administered as single dose and measured upto 24 hrs by Western blot analysis; type: organism-based
[35] = Cmax in mouse at 5 mg/kg measured upto 24 hrs by LC-MS/MS analysis; type: ADME, organism-based; design: time < 24 hrs, dose 5 mg/kg; details: in vivo
[36] = AUC(0 to infinity) in mouse at 5 mg/kg measured upto 24 hrs by LC-MS/MS analysis; type: ADME, organism-based; design: dose 5 mg/kg, time < 24 hrs; details: in vivo
[37] = Inhibition of ABL (unknown origin); design: species or system Homo sapiens
[38] = molecular target: CDK6/cyclin D3 (Homo sapiens, UniProt Q00534); assay: Inhibition of CDK6/cyclin-D3 (unknown origin); type: protein-complex assay
[39] = molecular target: RAC-gamma serine/threonine-protein kinase (Homo sapiens, UniProt Q9Y243); assay: Inhibition of AKT3 (unknown origin)
[40] = test system: A-431; assay: Antiproliferative activity against human A-431 cells assessed as cell growth inhibition incubated for 72 hrs by cell titre glo luminescence assay; type: functional, cell-based; details: A-431, 72 h
[41] = test system: BaF3; assay: cells; details: Mus musculus, BaF3, 72 h
[42] = test system: Epidermal growth factor receptor (Homo sapiens), P00533 [UNDEFINED MUTATION]; assay: Potency index, ratio of brigatinib IC50 to test compound IC50 for inhibition of EGFR del18/T790M/C797S triple mutant (unknown origin) using TK as substrate incubated for 120 mins in the presence of ATP by HTRF assay
[43] = test system: Epidermal growth factor receptor (Homo sapiens), P00533 [L858R,T790M,C797S]; assay: Potency index, ratio of brigatinib IC50 to test compound IC50 for inhibition of EGFR L858R/T790M/C797S triple mutant (unknown origin) using TK as substrate incubated for 120 mins in the presence of ATP by HTRF assay

Sequence of Serine/threonine-protein kinase B-raf (P15056 whole entry): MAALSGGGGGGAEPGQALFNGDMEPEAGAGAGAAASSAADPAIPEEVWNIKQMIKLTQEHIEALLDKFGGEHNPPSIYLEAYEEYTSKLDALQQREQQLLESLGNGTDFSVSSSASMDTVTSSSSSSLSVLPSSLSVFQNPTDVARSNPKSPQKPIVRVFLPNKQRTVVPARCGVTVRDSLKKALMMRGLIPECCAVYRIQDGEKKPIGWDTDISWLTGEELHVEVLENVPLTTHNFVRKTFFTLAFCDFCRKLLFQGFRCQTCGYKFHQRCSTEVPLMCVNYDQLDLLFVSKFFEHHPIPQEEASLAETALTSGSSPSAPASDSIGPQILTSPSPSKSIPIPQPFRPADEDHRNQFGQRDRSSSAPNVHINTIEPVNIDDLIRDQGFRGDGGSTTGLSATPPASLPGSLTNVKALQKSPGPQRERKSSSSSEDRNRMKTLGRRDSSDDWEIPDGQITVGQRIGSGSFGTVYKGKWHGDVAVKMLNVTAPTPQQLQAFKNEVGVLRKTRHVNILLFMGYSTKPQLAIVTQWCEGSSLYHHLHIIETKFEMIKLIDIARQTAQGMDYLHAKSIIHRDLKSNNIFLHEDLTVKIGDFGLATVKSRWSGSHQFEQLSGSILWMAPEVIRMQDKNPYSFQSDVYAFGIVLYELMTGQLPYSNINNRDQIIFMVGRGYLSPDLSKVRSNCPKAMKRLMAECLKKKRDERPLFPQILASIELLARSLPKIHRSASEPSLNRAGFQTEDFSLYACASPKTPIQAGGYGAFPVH
Sequence of RAC-gamma serine/threonine-protein kinase (Q9Y243 whole entry): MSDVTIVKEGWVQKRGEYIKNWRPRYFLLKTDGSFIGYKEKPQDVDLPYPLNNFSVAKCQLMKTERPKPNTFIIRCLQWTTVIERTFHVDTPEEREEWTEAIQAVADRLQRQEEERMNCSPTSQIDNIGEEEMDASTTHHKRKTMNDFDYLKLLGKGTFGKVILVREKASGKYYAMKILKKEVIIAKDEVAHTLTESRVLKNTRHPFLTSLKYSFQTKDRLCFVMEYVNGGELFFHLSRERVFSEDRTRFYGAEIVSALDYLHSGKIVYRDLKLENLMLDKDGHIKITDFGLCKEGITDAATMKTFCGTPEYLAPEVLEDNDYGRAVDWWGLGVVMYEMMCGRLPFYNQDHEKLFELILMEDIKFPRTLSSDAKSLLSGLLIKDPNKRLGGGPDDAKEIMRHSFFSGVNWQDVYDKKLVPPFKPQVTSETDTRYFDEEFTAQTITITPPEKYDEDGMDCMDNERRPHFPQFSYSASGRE
Sequence of Mitogen-activated protein kinase 14 (Q16539 whole entry): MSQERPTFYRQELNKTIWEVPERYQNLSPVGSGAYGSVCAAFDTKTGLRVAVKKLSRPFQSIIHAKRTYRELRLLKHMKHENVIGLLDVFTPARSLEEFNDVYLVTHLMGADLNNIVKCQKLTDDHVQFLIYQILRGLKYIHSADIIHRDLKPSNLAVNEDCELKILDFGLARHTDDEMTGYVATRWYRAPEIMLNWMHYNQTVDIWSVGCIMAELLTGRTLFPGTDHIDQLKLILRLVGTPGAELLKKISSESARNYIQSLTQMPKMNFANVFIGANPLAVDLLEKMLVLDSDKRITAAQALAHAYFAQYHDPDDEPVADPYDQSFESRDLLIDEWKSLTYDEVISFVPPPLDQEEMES
Sequence of CDK9/cyclin T1 (O60563 whole entry): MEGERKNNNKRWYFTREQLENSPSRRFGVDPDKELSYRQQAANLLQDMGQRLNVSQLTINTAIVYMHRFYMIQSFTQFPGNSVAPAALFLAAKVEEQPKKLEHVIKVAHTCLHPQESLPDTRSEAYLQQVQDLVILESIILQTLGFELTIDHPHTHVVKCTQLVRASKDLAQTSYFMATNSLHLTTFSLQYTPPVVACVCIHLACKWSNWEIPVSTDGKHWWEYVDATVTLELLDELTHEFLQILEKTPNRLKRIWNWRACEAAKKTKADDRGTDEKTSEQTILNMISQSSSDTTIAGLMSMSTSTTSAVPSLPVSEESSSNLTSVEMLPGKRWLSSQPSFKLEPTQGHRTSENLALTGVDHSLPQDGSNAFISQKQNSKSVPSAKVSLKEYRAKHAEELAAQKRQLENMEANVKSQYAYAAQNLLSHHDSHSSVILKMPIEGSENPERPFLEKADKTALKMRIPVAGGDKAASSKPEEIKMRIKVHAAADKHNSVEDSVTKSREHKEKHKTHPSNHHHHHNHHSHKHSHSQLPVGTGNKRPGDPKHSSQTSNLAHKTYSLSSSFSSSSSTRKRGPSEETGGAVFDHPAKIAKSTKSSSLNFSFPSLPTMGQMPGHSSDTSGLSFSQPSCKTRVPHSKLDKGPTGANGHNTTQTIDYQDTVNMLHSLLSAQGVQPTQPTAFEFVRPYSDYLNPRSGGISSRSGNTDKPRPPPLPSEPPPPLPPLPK
Sequence of CDK9/cyclin T1 (P50750 whole entry): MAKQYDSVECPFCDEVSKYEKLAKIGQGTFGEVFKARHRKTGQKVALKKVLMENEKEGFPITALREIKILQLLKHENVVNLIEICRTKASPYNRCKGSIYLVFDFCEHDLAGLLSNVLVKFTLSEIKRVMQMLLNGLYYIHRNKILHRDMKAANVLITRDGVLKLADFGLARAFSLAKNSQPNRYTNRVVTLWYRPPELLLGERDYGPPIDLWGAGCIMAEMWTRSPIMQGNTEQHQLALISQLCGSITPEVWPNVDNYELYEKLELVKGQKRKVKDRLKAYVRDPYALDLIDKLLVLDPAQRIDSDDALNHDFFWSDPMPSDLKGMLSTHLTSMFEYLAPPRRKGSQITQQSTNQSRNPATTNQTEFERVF
Sequence of CDK6/cyclin D3 (P30281 whole entry): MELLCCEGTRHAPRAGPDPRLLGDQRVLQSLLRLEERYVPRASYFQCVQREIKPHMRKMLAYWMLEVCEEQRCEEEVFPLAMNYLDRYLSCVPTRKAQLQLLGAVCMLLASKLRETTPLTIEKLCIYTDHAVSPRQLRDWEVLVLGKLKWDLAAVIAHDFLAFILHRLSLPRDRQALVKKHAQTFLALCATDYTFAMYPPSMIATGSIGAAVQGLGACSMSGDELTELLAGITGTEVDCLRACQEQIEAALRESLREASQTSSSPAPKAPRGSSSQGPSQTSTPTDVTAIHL
Sequence of CDK6/cyclin D3 (Q00534 whole entry): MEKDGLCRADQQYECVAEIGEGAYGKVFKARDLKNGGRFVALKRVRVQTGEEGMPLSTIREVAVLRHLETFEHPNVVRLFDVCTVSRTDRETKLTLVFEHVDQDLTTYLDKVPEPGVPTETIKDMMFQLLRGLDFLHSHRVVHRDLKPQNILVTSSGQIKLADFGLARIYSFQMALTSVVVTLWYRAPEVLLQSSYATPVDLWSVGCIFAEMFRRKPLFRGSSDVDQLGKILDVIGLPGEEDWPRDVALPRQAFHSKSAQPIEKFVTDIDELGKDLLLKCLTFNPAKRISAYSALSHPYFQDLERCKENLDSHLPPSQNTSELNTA
Sequence of Phosphatidylinositol 4,5-bisphosphate 3-kinase catalytic subunit alpha isoform (P42336 whole entry, canonical isoform): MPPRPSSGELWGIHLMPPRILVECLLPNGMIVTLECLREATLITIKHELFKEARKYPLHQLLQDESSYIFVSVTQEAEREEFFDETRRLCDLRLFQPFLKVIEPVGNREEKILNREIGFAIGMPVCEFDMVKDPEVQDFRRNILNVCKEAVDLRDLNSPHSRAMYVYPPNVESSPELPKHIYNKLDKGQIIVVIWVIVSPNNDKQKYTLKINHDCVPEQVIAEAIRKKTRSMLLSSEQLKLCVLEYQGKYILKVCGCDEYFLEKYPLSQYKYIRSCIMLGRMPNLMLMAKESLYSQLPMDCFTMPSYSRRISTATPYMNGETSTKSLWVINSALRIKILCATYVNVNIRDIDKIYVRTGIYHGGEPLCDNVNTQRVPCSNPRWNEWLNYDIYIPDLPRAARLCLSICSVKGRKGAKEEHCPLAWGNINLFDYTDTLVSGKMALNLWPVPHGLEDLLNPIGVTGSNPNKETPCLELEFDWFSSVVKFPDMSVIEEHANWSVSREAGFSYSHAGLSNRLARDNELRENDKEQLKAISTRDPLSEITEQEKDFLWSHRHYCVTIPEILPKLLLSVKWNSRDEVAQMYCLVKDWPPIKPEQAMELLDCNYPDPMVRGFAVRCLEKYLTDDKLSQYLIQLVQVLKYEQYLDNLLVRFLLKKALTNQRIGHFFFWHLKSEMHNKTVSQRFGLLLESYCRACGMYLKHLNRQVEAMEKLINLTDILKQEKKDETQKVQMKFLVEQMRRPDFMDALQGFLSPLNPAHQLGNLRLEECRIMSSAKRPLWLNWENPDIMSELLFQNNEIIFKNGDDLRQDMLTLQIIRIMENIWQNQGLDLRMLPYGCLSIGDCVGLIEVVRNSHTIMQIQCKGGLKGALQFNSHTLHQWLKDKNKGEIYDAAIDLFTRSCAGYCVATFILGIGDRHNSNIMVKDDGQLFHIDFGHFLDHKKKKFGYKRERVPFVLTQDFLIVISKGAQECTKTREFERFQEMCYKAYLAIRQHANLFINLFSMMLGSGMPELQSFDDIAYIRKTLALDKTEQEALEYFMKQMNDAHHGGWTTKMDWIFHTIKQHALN

SMILES: COCC1CN(C2CCN(c3cc(OC)c(Nc4ncc(Br)c(Nc5ccc6c(c5P(C)(C)=O)OCCO6)n4)cc3C)CC2)C1
Drug uptake [1]: Active
Activity [2]: Non-Toxic
AUC(0-t) at 24 h [3]: 11600 ng·h/mL
inhibition in vivo at 20 mg/kg [4]: 58.4%
IC50 [5]: > 10000 nM
MRT [6]: 4.7 h
inhibition in vivo at 40 mg/kg [7]: 68.8%
inhibition in vivo at 40 mg/kg [8]: 90.3%
inhibition [9]: Active
Activity [10]: Non-Toxic
Activity [11]: 0.38 g
Drug uptake [12]: Active
Drug uptake [13]: Active
IC50 [14]: 14 nM
Activity [15]: 0.319 g
inhibition in vivo at 40 mg/kg [16]: 67.4%
inhibition in vivo at 15 mg/kg [17]: 48.4%
inhibition in vivo at 15 mg/kg [18]: 22%
MTD at 1344 h [19]: 15 mg/kg
IC50 [20]: > 10000 nM
Activity [21]: 0.161 g
IC50 [22]: 0.09 nM
IC50 [23]: 4080 nM
Activity [24]: Non-Toxic
IC50 [25]: > 10000 nM
Drug uptake [26]: Active
half-life [27]: 2.9 h
inhibition in vivo at 30 mg/kg [28]: 47.2%
Activity [29]: Toxic
IC50 [30]: 0.31 nM
inhibition in vivo at 30 mg/kg [31]: 82.6%
Activity [32]: 0.475 g
Activity [33]: 0.653 g
inhibition [34]: Active
Cmax [35]: 1990 ng/mL
AUC(0-inf) [36]: 11600 ng·h/mL
IC50 [37]: 86 nM
IC50 [38]: > 10000 nM
IC50 [39]: > 10000 nM

IC50 [40]: 709 nM
IC50 [41]: < 100 nM
IC50 [14]: 433 nM
SMILES: COc1cc(N2CCC(N3CCN(C)CC3)CC2)ccc1Nc1ncc(Cl)c(Nc2ccccc2P(C)(C)=O)n1 [BRIGATINIB]

Ratio IC50 [42]: 7
IC50 [14]: 16 nM
Ratio IC50 [43]: 40
IC50 [22]: 0.08 nM
IC50 [30]: 0.11 nM
SMILES: CCc1cc(Nc2ncc(Br)c(Nc3ccc4nccnc4c3P(C)(C)=O)n2)c(OC)cc1N1CCC(N2CC(N(C)C)C2)CC1

AUC(0-t) at 24 h [3]: 12300 ng·h/mL
MRT [6]: 6 h
IC50 [14]: 14 nM
IC50 [22]: 0.15 nM
half-life [27]: 4.2 h
IC50 [30]: 0.4 nM
Cmax [35]: 1470 ng/mL
AUC(0-inf) [36]: 12500 ng·h/mL
SMILES: CCc1cc(Nc2ncc(Br)c(Nc3ccc4c(c3P(C)(C)=O)OCO4)n2)c(OC)cc1N1CCC(N2CC(N(C)C)C2)CC1
